Measurements published in patent US7288510B2, “Nitrogen-containing ortho ester-based surfactant, its preparation and use” (priority 2001, dated 2007).
Marks after values point to notes of the source that are not given here.

Columns and labels:
[1] = literature value; cited from earlier work
[2] = foaming behaviour (proposed ISO 4877 circulation method); format: physicochemical
Procedure: The surfactant is dissolved in distilled water and diluted to a defined concentration. 500 ml of this solution is transferred to a thermostatable glass cylinder, graduated to 1500 ml. The solution is then circulated through a stainless steel tube using a pump. The solution enters the tube in the bottom of the glass cylinder and is released ca. 14 cm above the 1500-ml mark on the cylinder. The pump speed is 200 liter/h.
The solution is circulated for 10 minutes (foam level recorded each minute), the pump is then stopped, and the foam level recorded for additional 5 minutes (proposed ISO-method ISO 4877).

[3] = surface tension at a concentration of 0.1%; format: physicochemical; conditions: pH 8 buffer solution, bubble pressure method
[4] = dynamic contact angle of alkaline formulations; format: physicochemical; conditions: formulation diluted 1:10, on Parafilm PM-922
Procedure: In this example, the wetting properties of alkaline formulations of some of the surfactants earlier described are tested by dynamic contact angle measurements.
Formulations I-III above were diluted 1:10 before measurements. The dynamic contact angle was measured on a hydrophobic, polymeric material (Parafilm PM-922, American Can Company) using a First Ten Ångstroms FTÅ 200 instrument (Portsmouth, Va., USA) equipped with a video camera and an image analyzing unit.

[5] = hydrotrope test: clarity interval of cleaning formulation; format: physicochemical; conditions: for Active amount of hydrotrope added: amount needed until the formulation of Table 10 was clear; for Cloud point of formulation: formulation of Table 10 with the hydrotrope
Procedure: [table] Tetrapotassium pyrophoshate and sodium metasilicate pentahydrate were dissolved in tap water. The ethoxylated alcohol was added to this solution, which then turned cloudy. The hydrotrope was added until the solution was clear, and the required amount was recorded. Then the temperature was raised until the mixture went cloudy again.

For `CCCCCCCCCCCC[N+](C)(C)C.[Br-]` [Dodecyltrimethylammonium bromide, n-dodecyltrimethylammonium bromide], the “cmc at 21° C.” value [1] is given as 4.9^c g/l, the “foaming behaviour in words” value [2] is given as “not affected by the addition of acid” and the “Foam Volume” value ([2]; 0.01% in distilled water, 1 min, circulating) is given as 160 mL. The “Foam Volume” value ([2]; 0.01% in distilled water, 2 min, circulating) was 160 mL, the “Foam Volume” value ([2]; 0.01% in distilled water, 3 min, circulating) was 160 mL and the “Foam Volume” value ([2]; 0.01% in distilled water, 4 min, circulating) was 140 mL. For the same molecule, the “Foam Volume” value ([2]; 0.01% in distilled water, 5 min, circulating) was 140 mL, the “Foam Volume” value ([2]; 0.01% in distilled water, 6 min, circulating) was 140 mL and the “Foam Volume” value ([2]; 0.01% in distilled water, 7 min, circulating) was 140 mL. For the same molecule, the “Foam Volume” value ([2]; 0.01% in distilled water, 8 min, circulating) was 140 mL, the “Foam Volume” value ([2]; 0.01% in distilled water, 9 min, circulating) was 140 mL and the “Foam Volume” value ([2]; 0.01% in distilled water, 10 min, circulating) was 140 mL. For the same molecule, the “Foam Volume” value ([2]; 0.01% in distilled water, 11 min, pump stopped at 10 min) was 0 mL, the “Foam Volume” value ([2]; 0.01% in distilled water, 12 min, pump stopped at 10 min) was 0 mL and the “Foam Volume” value ([2]; 0.01% in distilled water, 13 min, pump stopped at 10 min) was 0 mL. The “Foam Volume” value ([2]; 0.01% in distilled water, 14 min, pump stopped at 10 min) was 0 mL, the “Foam Volume” value ([2]; 0.01% in distilled water, 15 min, pump stopped at 10 min) was 0 mL and the “Foam Volume” value ([2]; 0.1% acid treated (pH 2.5, sulfuric acid, stirred 10 minutes), 1 min, circulating) was 820 mL. For the same molecule, the “Foam Volume” value ([2]; 0.1% acid treated (pH 2.5, sulfuric acid, stirred 10 minutes), 2 min, circulating) was 1100 mL, the “Foam Volume” value ([2]; 0.1% acid treated (pH 2.5, sulfuric acid, stirred 10 minutes), 3 min, circulating) was 1280 mL and the “Foam Volume” value ([2]; 0.1% acid treated (pH 2.5, sulfuric acid, stirred 10 minutes), 4 min, circulating) was 1360 mL. For the same molecule, the “Foam Volume” value ([2]; 0.1% acid treated (pH 2.5, sulfuric acid, stirred 10 minutes), 5 min, circulating) was 1380 mL, the “Foam Volume” value ([2]; 0.1% acid treated (pH 2.5, sulfuric acid, stirred 10 minutes), 6 min, circulating) was 1380 mL and the “Foam Volume” value ([2]; 0.1% acid treated (pH 2.5, sulfuric acid, stirred 10 minutes), 7 min, circulating) was 1360 mL. The “Foam Volume” value ([2]; 0.1% acid treated (pH 2.5, sulfuric acid, stirred 10 minutes), 8 min, circulating) was 1360 mL, the “Foam Volume” value ([2]; 0.1% acid treated (pH 2.5, sulfuric acid, stirred 10 minutes), 9 min, circulating) was 1350 mL and the “Foam Volume” value ([2]; 0.1% acid treated (pH 2.5, sulfuric acid, stirred 10 minutes), 10 min, circulating) was 1340 mL. For the same molecule, the “Foam Volume” value ([2]; 0.1% acid treated (pH 2.5, sulfuric acid, stirred 10 minutes), 11 min, pump stopped at 10 min) was 800 mL, the “Foam Volume” value ([2]; 0.1% acid treated (pH 2.5, sulfuric acid, stirred 10 minutes), 12 min, pump stopped at 10 min) was 340 mL and the “Foam Volume” value ([2]; 0.1% acid treated (pH 2.5, sulfuric acid, stirred 10 minutes), 13 min, pump stopped at 10 min) was 280 mL. For the same molecule, the “Foam Volume” value ([2]; 0.1% acid treated (pH 2.5, sulfuric acid, stirred 10 minutes), 14 min, pump stopped at 10 min) was 120 mL, the “Foam Volume” value ([2]; 0.1% acid treated (pH 2.5, sulfuric acid, stirred 10 minutes), 15 min, pump stopped at 10 min) was 60 mL and the “Foam Volume” value ([2]; 0.1% in distilled water, 1 min, circulating) was 780 mL. For the same molecule, the “Foam Volume” value ([2]; 0.1% in distilled water, 2 min, circulating) was 1080 mL, the “Foam Volume” value ([2]; 0.1% in distilled water, 3 min, circulating) was 1260 mL and the “Foam Volume” value ([2]; 0.1% in distilled water, 4 min, circulating) was 1340 mL. For the same molecule, the “Foam Volume” value ([2]; 0.1% in distilled water, 5 min, circulating) was 1370 mL, the “Foam Volume” value ([2]; 0.1% in distilled water, 6 min, circulating) was 1360 mL and the “Foam Volume” value ([2]; 0.1% in distilled water, 7 min, circulating) was 1360 mL. The “Foam Volume” value ([2]; 0.1% in distilled water, 8 min, circulating) was 1340 mL, the “Foam Volume” value ([2]; 0.1% in distilled water, 9 min, circulating) was 1320 mL and the “Foam Volume” value ([2]; 0.1% in distilled water, 10 min, circulating) was 1320 mL. For the same molecule, the “Foam Volume” value ([2]; 0.1% in distilled water, 11 min, pump stopped at 10 min) was 1200 mL, the “Foam Volume” value ([2]; 0.1% in distilled water, 12 min, pump stopped at 10 min) was 800 mL and the “Foam Volume” value ([2]; 0.1% in distilled water, 13 min, pump stopped at 10 min) was 400 mL. The “Foam Volume” value ([2]; 0.1% in distilled water, 14 min, pump stopped at 10 min) was 260 mL, the “Foam Volume” value ([2]; 0.1% in distilled water, 15 min, pump stopped at 10 min) was 180 mL and the “γ at 0.10% and 21° C.” value [3] was 52.5 mN/m. The “Contact angle after 10 s” value [4] was 68.2 °, the “Contact angle after 30 s” value [4] was 67.9 ° and the “Contact angle after 1 min” value [4] was 67.4 °.
In the case of `CC(C)c1ccc(S(=O)(=O)[O-])cc1.[Na+]` [Sodium cumene sulfonate], the “Active amount of hydrotrope added” value [5] is reported as 9.0 % (w/w) and the “Cloud point of formulation” value [5] is reported as 45-50 °C.
In the case of `CCCCCCCCCCCCCC[N+](C)(C)C.[Br-]` [Tetradecyltrimethylammonium bromide, n-tetradecyltrimethylammonium bromide], the “cmc at 21° C.” value [1] is listed as 1.2^d g/l, the “γ at 0.10% and 21° C.” value [3] is listed as 41.5 mN/m and the “Contact angle after 10 s” value [4] is listed as 60.4 °. For the same molecule, the “Contact angle after 30 s” value [4] was 60.1 ° and the “Contact angle after 1 min” value [4] was 59.1 °.
In the case of disodium octyliminodipropionate, the “Active amount of hydrotrope added” value [5] is reported as 6.0 % (w/w) and the “Cloud point of formulation” value [5] is reported as 45-50 °C.
